From patent US6376537B1, “Cancer treatment” (priority 2000, dated 2002)

Experiments:
[1] = test system: hepatocellular carcinoma; experiment: Liver cancer case report, oral Simvastatin treatment; assay type: in vivo, human
Description: (§1) Its use according to this invention in the treatment of malignant disease consists of daily administration of an 80 mg tablet orally.
(§2) In order to avoid unforeseen side effects, the treatment is initiated at about 20 mg dose tablet once daily for one week. The dose then is increased to about 40 mg once daily for an additional week. The following week the dose is increased to about 60 mg and on the fourth week the dose is increased to about 80 mg (two tablets of 40 mg each), and to remain so indefinitely. The intervals for stepping up the dosage can vary.

[2] = test system: metastatic colon cancer; experiment: Colon cancer case reports, oral Simvastatin treatment; assay type: in vivo, human; details: Case #1, 20 mg daily raised to 80 mg; over three to four months
Description: as §1, §2
Case #1: business person who underwent hemicolectomy for adenocarcinoma of the colon in 1993 was presented in 1995 to Cedars Sinai Medical Center Liver Team for possible cryotherapy. At that time they had multiple masses in both lobes of the liver as well as outside their liver and multiple nodules in both lungs. Clinically they were bedridden, weak and malnourished. They were rejected as a suitable candidate for needle cryotherapy because of their advanced disease, and was considered unrescuable with a life expectancy of several weeks.
The dose was increased by 20 mg increments every two weeks up to the dose of 80 mg. […] […] gained 27 pounds, became normally active, including extensive travel around the world.
Case #2: person underwent hemicolectomy for cancer of the colon in 1995 because of intestinal obstruction. […]

## CCC(C)(C)C(=O)O[C@H]1C[C@@H](C)C=C2C=C[C@H](C)[C@H](CC[C@@H]3C[C@@H](O)CC(=O)O3)[C@H]21 [Simvastatin]
[1]; patient, baseline above 55,000, started January 1999, value by April of 1999
  tumor marker alpha fetoprotein: less than 8
[1]; same patient, value in March 2000
  tumor marker alpha fetoprotein: 2.4
[2]
  weight gain: 27 pounds
